Assay results published in patent publication US12268694B2, “Combination pharmaceutical agents as RSV inhibitors” (Enanta Pharmaceuticals, Inc., priority 2017, dated 2025).
Where two headings read alike, the source gives them in different places.

Tests used:
[1] = tested on: RSV genotype B, strain 9320; assay: RSV-B assay: A549 cells infected with RSV-B, qPCR or ATPlite readout; type: cell-based; conditions: read-out: Human RSV-B EC50
Excerpt: HEp-2 cells, (originally derived from tumors grown in irradiated-cortisonised weanling rats that had been injected with epidermoid carcinoma tissue from a person's larynx, but later found to be indistinguishable from HeLa cells by PCR DNA analysis), were used for the culturing of genotype B, strain 9320. Flasks were inoculated with RSV-B and viral stocks were collected once cytopathic effect (CPE) was greater than […]. Viral stocks in 25% sucrose media were snap frozen using liquid nitrogen to increase viral stability. Viral stock titers were quantified by tissue culture infectious dose 50% (TCID50) using 8,000 cells per well and 5-fold viral dilutions across a 96-well plate, cultured for 4 days. Viral stock titers were also quantified by a plaque forming unit assay, as described elsewhere.
The assay is run as follows: A549 cells (originally derived through explant culture from a person's carcinomatous lung tissue) are seeded into the inner 60 wells of a 96-well plate at 3,000 cells per well in a volume of 50 μL using A549 growth media (F-12K Media, 1% Penn/Strep, 1% nonessential amino acids, 10% heat-inactivated FBS). 2-fold serial dilutions of control and test compounds are added to the wells in duplicate in a total volume of 25 μL. Viral stock is then added to the wells at a multiplicity of infection (MOI) of 0.5 in a volume of 25 μL, bringing the total volume of each well to 100 μL. The MOI is calculated using the PFU/mL, or TCID50 if unavailable. Each 96-well plate has a control column of 6 wells with cells and virus but no compound (negative control, max CPE), a column with cells but no compound or virus (positive control, minimum CPE), and a column with no cells or virus or compound (background plate/reagent control). The control wells with cells but no virus are given an additional 25 μL of growth media containing an equal quantity of sucrose as those wells receiving the viral stock in order to keep consistent in media and volume conditions. The outer wells of the plate are filled with 125 μL of moat media (DMEM, 1% Penn/Strep) to act as a thermal and evaporative moat around the test wells. 6 days post infection, the plates are read using qPCR or ATP lite (50 μL added per well), which quantifies the amount of ATP (a measure of cell health) present in each well. Assay plates treated with APTlite are read using the Envision luminometer. […] EC50 ranges are as follows: A <0.4 μM; B 0.4-0.8 μM; C >0.8 μM.

[2] = tested on: genotype A, "Long" strain RSV; assay: RSV-A assay: CPE protection in HEp-2 cells, ATPlite readout; type: cell-based, human respiratory syncytial virus
How it was run: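 EC50 derives from ATPlite luminescence after 5-day culture of RSV Long-infected (MOI 0.1) HEp-2 cells, seeded 8,000/well, exposed to duplicate 2-fold compound series. CC50 comes from an identical plate receiving medium instead of virus.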

[3] = human respiratory syncytial virus, A549, 144 h
[4] = human respiratory syncytial virus, HEp-2, read-out: Human RSV-A (“Long” strain) EC50

SMILES	EC50 [1, 3] [nM]	EC50 [2, 4] [nM]	EC50 ([1]; A549 cells, strain 9320, MOI 0.5, 6 days post infection) [nM]	EC50 ([2]; HEp-2 cells, RSV-A Long strain, ATPlite readout, read-out: Human RSV-A (“Long” strain) EC50) [nM]
Cc1ccc(-c2nnc(N[C@H]3N=C(c4ccccc4)c4ccccc4NC3=O)o2)c(N2CCOCC2)n1 [Example 252]	< 400	< 400		
O=C1Nc2ccccc2C(c2ccccc2)=N[C@@H]1Nc1nnc(-c2ncc(C(F)(F)F)cc2N2CC3CCC(C2)O3)o1 [Example 251]	< 400	< 400		
CN(C)c1ccc(-c2nnc(NC3N=C(c4ccccc4)c4ccccc4NC3=O)o2)nc1 (stereo not drawn) [Example 108]	> 800	> 800		
CN1CCN(c2ccccc2-c2nnc(NC3N=C(c4ccccc4)c4ccccc4NC3=O)o2)CC1 (stereo not drawn) [Example 224]	< 400	> 800		
O=C1Nc2ccccc2C(c2ccccc2)=NC1Nc1nnc(-c2ccc(-n3cccn3)cc2)[nH]1 (stereo not drawn) [Example 364]	400 to 800	< 400		
O=C1Nc2ccccc2C(c2ccccc2)=N[C@@H]1Nc1nnc(-c2csc(N3CCOCC3)n2)o1 [Example 351]	400 to 800	400 to 800		
O=C1Nc2ccccc2C(c2ccccc2)=NC1Nc1nnc(-c2cccnc2N2CCOCC2)o1 (stereo not drawn) [Example 120]	400 to 800	< 400		
O=C1Nc2ccccc2C(c2ccccc2)=N[C@@H]1Nc1nnc(-c2ncc(Br)cc2N2CCOCC2)o1 [Example 168]	< 400	< 400		
N#Cc1ccc(-c2nnc(N[C@H]3N=C(c4ccccc4)c4ccccc4NC3=O)o2)c(N2CCOCC2)n1 [Example 153]	< 400	< 400		
O=C1Nc2ccccc2C(c2ccccc2)=N[C@@H]1Nc1nnc(-c2nc(C(F)(F)F)sc2N2CCOCC2)o1 [Example 339]	< 400	< 400		
N#Cc1cc(-c2nnc(N[C@H]3N=C(c4ccccc4)c4ccccc4NC3=O)o2)c(N2CCOCC2)nc1C1CC1 [Example 175]	400 to 800	< 400		
Cn1c(N2CCOCC2)c(-c2nnc(N[C@H]3N=C(c4ccccc4)c4ccccc4NC3=O)o2)ccc1=O [Example 155]	< 400	< 400		
CC(C)n1cc(-c2nnc(N[C@H]3N=C(c4ccccc4)c4ccccc4NC3=O)o2)c(N2CCOCC2)n1 [Example 403]	< 400	< 400		
O=C1Nc2c(F)cccc2C(c2ccccc2)=N[C@@H]1Nc1nnc(-c2cccnc2N2CCOCC2)o1 (single isomer, unassigned) [Example 358]			< 400	< 400
O=C1Nc2ccccc2C(c2ccccc2)=N[C@@H]1Nc1nnc(-c2nc(C3CCC3)sc2N2CCOCC2)o1 [Example 387]	< 400	< 400		
N#Cc1ccc(-c2nnc(NC3N=C(c4ccccc4)c4ccccc4NC3=O)o2)c(N2CCOCC2)c1 (stereo not drawn) [Example 131]	< 400	< 400		
O=C1Nc2ccccc2C(c2ccccc2)=NC1Nc1nnc(-c2ccc(C(F)(F)F)cc2N2CCOCC2)o1 (stereo not drawn) [Example 123]	400 to 800	< 400		
O=C1Nc2ccccc2C(c2ccccc2)=N[C@@H]1Nc1nnc(-c2ncsc2N2CCOCC2)o1 [Example 336]	< 400	< 400		
O=C1Nc2ccccc2C(c2ccccc2)=NC1Nc1nnc(-c2ccc(-n3cccn3)cc2N2CCOCC2)o1 (stereo not drawn) [Example 129]	< 400	< 400		
O=C1Nc2c(F)cccc2C(c2ccccc2)=N[C@@H]1Nc1nnc(-c2ccccc2N2CCOCC2)o1 [Example 355a]	< 400	< 400		
C[C@H]1CN(c2cc(C(F)(F)F)cnc2-c2nnc(N[C@H]3N=C(c4ccccc4)c4ccccc4NC3=O)o2)CCO1 [Example 278]	< 400	< 400		
O=C1Nc2ccccc2C(c2ccccc2)=N[C@@H]1Nc1nnc(-c2nc(-c3ccncc3)sc2N2CCOCC2)o1 [Example 429]	< 400	< 400		
O=C1Nc2ccccc2C(c2ccccc2)=N[C@@H]1Nc1nnc(-c2ncc(C3CC3)cc2N2CCOCC2)o1 [Example 169]	< 400	< 400		

SMILES	EC50 [1, 3] [nM]	EC50 [2, 4] [nM]	EC50 ([1]; A549 cells, strain 9320, MOI 0.5, 6 days post infection) [nM]	EC50 ([2]; HEp-2 cells, RSV-A Long strain, ATPlite readout, read-out: Human RSV-A (“Long” strain) EC50) [nM]
O=C1Nc2ccccc2C(c2ccccc2)=N[C@@H]1Nc1nnc(-c2ncc(C(F)(F)F)cc2N2C3CCC2COC3)o1 [Example 250]	< 400	< 400		
O=C1Nc2ccccc2C(c2ccccc2)=NC1Nc1ccc(-c2ccccc2)nn1 (stereo not drawn) [Example 95]	> 800	400 to 800		
O=C1Nc2ccccc2C(c2ccccc2)=N[C@@H]1Nc1nnc(-c2nc3ccccc3cc2N2CCOCC2)o1 [Example 322]	< 400	< 400		
O=C1Nc2ccccc2C(c2ccccc2)=NC1Nc1nnc(-c2ccc(F)cc2N2CCOCC2)o1 (stereo not drawn) [Example 127]	< 400	< 400		
O=C1Nc2ccccc2C(c2ccccc2)=N[C@@H]1Nc1nnc(-c2ccc(C(F)(F)F)nc2N2CC3CCC(C2)O3)o1 [Example 276]	> 800	400 to 800		
CCc1nc(-c2nnc(N[C@H]3N=C(c4ccccc4)c4ccccc4NC3=O)o2)c(N2CCOCC2)s1 [Example 385]	< 400	< 400		
O=C1Nc2ccccc2C(c2ccccc2)=N[C@@H]1Nc1nnc(-c2ncc(F)cc2N2CCOCC2)o1 [Example 136, (S)-3-((5-(5-fluoro-3-morpholinopyridin-2-yl)-1,3,4-oxadiazol-2-yl)amino)-5-phenyl-1,3-dihydro-2H-benzo[e][1,4]diazepin-2-one]	< 400	< 400		
O=C1Nc2ccccc2C(c2ccccc2)=N[C@@H]1Nc1nnc(-c2oc3ccccc3c2N2CCOCC2)o1 [Example 179]	< 400	< 400		
O=C1Nc2ccccc2C(c2ccccc2)=N[C@@H]1Nc1nnc(-c2ncc(C(F)(F)F)cc2N2CCC(F)CC2)o1 [Example 269]	400 to 800	> 800		
CC(F)(F)c1nc(-c2nnc(N[C@H]3N=C(c4ccccc4)c4ccccc4NC3=O)o2)c(N2CCOCC2)s1 [Example 407]	< 400	< 400		
Cc1ccc(-c2nnc(NC3N=C(c4ccccc4)c4ccccc4NC3=O)o2)c(N2CCOCC2)n1 (stereo not drawn) [Example 144]	< 400	< 400		
O=C1Nc2ccccc2C(c2ccccc2)=N[C@@H]1Nc1nnc(-c2nc(-c3cccnc3)sc2N2CCOCC2)o1 [Example 388]	< 400	< 400		
C[C@@H]1CN(c2cc(C(F)(F)F)cnc2-c2nnc(N[C@H]3N=C(c4ccccc4)c4ccccc4NC3=O)o2)CCO1 [Example 277]	< 400	< 400		
O=C1Nc2ccccc2C(c2ccccc2)=N[C@@H]1Nc1nnc(-c2nc(-c3ccccn3)sc2N2CCOCC2)o1 [Example 341]	< 400	< 400		
N#CCCNc1cc(C(F)(F)F)cnc1-c1nnc(N[C@H]2N=C(c3ccccc3)c3ccccc3NC2=O)o1 [Example 303]	< 400	< 400		
COCCOc1cc(C#N)ccc1-c1nnc(N[C@H]2N=C(c3ccccc3)c3ccccc3NC2=O)o1 [Example 300]	< 400	< 400		
C[C@H]1CN(c2ncccc2-c2nnc(NC3N=C(c4ccccc4)c4ccccc4NC3=O)o2)CCO1 (stereo partly drawn) [Example 263]	400 to 800	400 to 800		
O=C1Nc2ccccc2C(c2ccccc2)=N[C@@H]1Nc1nnc(-c2nc(C3CC3)sc2N2CCOCC2)o1 [Example 338]	< 400	< 400		
O=C1Nc2ccccc2C(c2ccccc2)=N[C@@H]1Nc1nnc(-c2nc(-c3ccccc3)sc2N2CCOCC2)o1 [Example 340]	< 400	< 400		
C[C@@H]1COCCN1c1ncccc1-c1nnc(NC2N=C(c3ccccc3)c3ccccc3NC2=O)o1 (stereo partly drawn) [Example 245]	400 to 800	< 400		
O=C1Nc2ccccc2C(c2ccccc2)=N[C@@H]1Nc1nnc(-c2cccnc2N2CCOCC2)o1 [Example 242]	< 400	< 400		
Cc1nc(-c2nnc(N[C@H]3N=C(c4ccccc4)c4ccccc4NC3=O)o2)c(N2CCOCC2)s1 [Example 272]	< 400	< 400		
